Assay results as given in patent US12648942B2, “Method for treating acute ischemic stroke” (Lumosa Therapeutics Co., LTD, priority 2021, dated 2026).

How the values were obtained:
[1] = Study 101: safety and tolerability of single doses in healthy subjects; type: in vivo; settings: both sexes, human, plasma, intravenous; from Subject 001-008 and Subject 001-042, 0.05 mg/kg; read-out: Cmax at which DC009 was tolerable in human
Excerpt: The primary objective of this Phase 1, double-blind, randomized, placebo-controlled study was to determine the safety, tolerability, and pharmacokinetics of single ascending doses of DC009 drug product administered by 15-minute IV infusion in healthy subjects. The secondary objectives were to characterize the pharmacodynamics of single-ascending doses, explore the pharmacokinetic-pharmacodynamic relationships of single-ascending doses, and to determine the RP2D of the DC009 drug product.
The subject population was healthy adult male and female subjects between the ages of 18 and 65 years. Sixteen healthy subjects completed the study. All subjects received a single dose of DC009 drug product or placebo administered via a 15-minute IV infusion.
Cohort 1 (8 subjects) was administered 0.05 mg/kg DC009 drug product or placebo, and Cohort 0 (8 subjects) was administered 0.025 mg/kg DC009 drug product or placebo. […]

minipigs = assay: Pre-clinical toxicity in minipig; type: in vivo; settings: set from pre-clinical toxicity result in minipigs
Protocol: According to inventors' pre-clinical toxicity result of DC009 in minipig, the inventors set up a limit on plasma exposure of 1177 ng/mL in minipigs. The inventors then set up a safety factor to provide a margin of safety for protecting human subjects receiving the initial clinical dose. As described in the Background, the default safety factor is 10 but it may be adjusted based on available safety data.

[2] = system: embolic occlusion of the middle cerebral artery in male Sprague-Dawley rats; assay: Embolic stroke model in SD rat (Examples 1, 4-6); type: in vivo, Sprague-Dawley rat; settings: for Mean neurological deficit scores (NDS): 24 hours after drug administration
Protocol: A 10% chloral hydrate solution (400 mg/kg) was injected intraperitoneally into SD male rats (240-320 g) for anesthesia. A vertical incision of about 2 cm in length was made on the right side near the center of the neck, and the right common carotid artery (CCA), external carotid artery (ECA) and internal carotid artery (ICA) were separated along the margin of the inner side of sternocleidomastoid muscles. The incision at the internal carotid artery and the proximal end of the common carotid artery were clipped respectively with noninvasive arterial clips. A small incision was made on the external carotid artery, and the distal end of the external carotid artery was ligated. The arterial clip at the proximal end of the common carotid artery was released, and 10 μl blood was drawn. After blood was drawn, the proximal end of the common carotid artery was again clipped with a noninvasive arterial clip. The 10 μl blood drawn was placed in a 1 mL EP vial and kept at RT for 30 min to allow the coagulation of blood and then transferred into a −20° C. refrigerator for 1 hour to allow the formation of solid coagulation. 1 hour later, the blood clots were taken out, 1 mL normal saline was added therein, and then the blood clots were broken into relatively uniform microthrombus by a steel spatula. The microthrombus suspension was then transferred into a 1 mL injector for use. When the clip on the internal carotid artery of the rat was released, the 1 mL thrombus suspension in the injector was slowly injected from the external carotid artery of the rat to its proximal end, and then was injected into the brain of the rat through the internal carotid artery. Subsequently, the proximal end of the external carotid artery was ligated, the arterial clips on the internal carotid artery and the common carotid artery were released, and blood flow was restored. The common jugular vein was separated, and then injected with normal saline solution, or tested compound. The vein was ligated. 3 drops of penicillin was dropped on the wound. The wound was sewed, and animals were waited for awake.
24 hours after the rats were awake, the degree of damage in neural function was evaluated by the Zealonga method. A score of 0 indicated no sign of loss in neural function, 1 indicated the front limbs on the undamaged side could not stretch out, 2 indicated walking toward the undamaged side, 3 indicated tail-chasing walking in circles toward the undamaged side, 4 indicated involuntary walking with disturbance of consciousness, and 5 indicated death. The evaluation results were statistically analyzed and subjected to t-test.
After the rats were awake for 24 hours and assessed for their degree of damage in neural function by Zealonga method, they were anesthetized with urethane followed by immediate decapitation and removal of the brain. Brain tissues were kept in a −20° C. refrigerator for 2 hours, and coronal sections of about 2 mm were successively sliced from the prefrontal end for a total of 5 sections and then placed into a 2% TTC solution to incubate without light at 37° C. for 30 min. The color change in brain sections was observed: normal brain tissues were stained red by TTC, while ischemic brain tissues appeared in white. Photographs were taken by using a digital camera and processed with image statistics software, and the volume of infarction in brain tissues and the area of normal brain tissues in the coronal sections were calculated. The ratio of the cerebral infarction volume of each group was statistically calculated and subject to t-test.
An embolic occlusion of the middle cerebral artery in male Sprague-Dawley rats was induced by introducing blood clots into the carotid artery. Rats were treated with vehicle (saline), rtPA (10 mg/kg, IV bolus injection), or DC009 (0.007 mg/kg, IV bolus injection) after 3 hours of stroke onset (n=12-13 per treatment group). […]

[3] = Human plasma pharmacokinetics, summary statements of the description; type: in vivo

Row | Compound | Cmax [1] [ng/mL] | limit on plasma exposure (minipigs) [ng/mL] | infarct volumes (% hemisphere) ([2]; DC009 0.0007 mg/kg IV bolus from 24 hours after stroke onset, once daily for 6 days, 7 days after stroke) | effective dose in the rat Embolic Stroke Model ([2]; data from Example 4-6) [µg/kg] | accumulation on multiple doses ([3]; administration of multiple doses) | plasma level after dosing ([3]; human plasma, 30 minutes after dosing) | half-life ([3]; human plasma, read-out: elimination half-life) [min] | Mean neurological deficit scores (NDS) ([2]; rtPA 3 mg/kg IV bolus 6 hours after stroke onset, 6-point scale) | infarct volumes (% hemisphere) ([2]; rtPA 3 mg/kg IV bolus 6 hours after stroke onset, 24 hours, TTC) | Mean neurological deficit scores (NDS) ([2]; rtPA 10 mg/kg IV bolus 3 hours after stroke onset, scale 0-5) | infarct volumes (% hemisphere) ([2]; rtPA 10 mg/kg IV bolus 3 hours after stroke onset, 24 hours, TTC)
1 | CC(NC(=O)C1CCCN1)C(=O)NC(CCCCN)C(=O)NCCCCC(NC(=O)C1Cc2cc(O)c(O)cc2C(C)(C)N1)C(=O)O (stereo not drawn) [DC009, 3S-6,7-dihydroxy-1,1-dimethyl-1,2,3,4-tetrahydro-isoquinoline-3-acyl-Lys(Pro-Ala-Lys)] | ~150 | 1177 | 9.95 ± 10.32 | 7 to 70 | does not lead the accumulation | almost un-measurable | < 5 |  |  |  | 
2 | rtPA: Alteplase (Activase), a recombinant tissue-type plasminogen activator (rtPA) [reference compound] |  |  |  |  |  |  |  | 3.27 ± 1.85 | 17.90 ± 7.47 | 2.13 ± 1.173 | 12.74 ± 9.02
